Assay [1] relates to A549. The assay can be described thus: Cytotoxicity against human A549 cells by MTT assay. The format is functional, cell-based. For orientation: Tetrazolium dyes change colour on reduction, which living cells bring about.
Assay [2] relates to HepG2. The assay can be described thus: Cytotoxicity activity against human HepG2 cells by MTT assay. Format: functional, cell-based.
Assay [3] deals with MCF7. As to the kind of experiment: Cytotoxicity against human MCF7 cells by MTT assay. The format is functional, cell-based.
Assay [4] concerns HeLa. The assay can be described thus: Cytotoxicity against human HeLa cells by MTT assay. The format is functional, cell-based.
Assay [5] is described as follows: Cytotoxicity against human SKOV3 cells by MTT assay. Conditions: SK-OV-3; call rule not given here. Format: functional, cell-based.
Assay [6] in a line: Inhibition of porcine pancreatic lipase type 2 using p-nitrophenyl laurate as substrate after 2 hrs by UV spectrophotometric analysis. Also on record: species or system Sus scrofa. Particulars: for pIC50: read-out: IC50.

Structures are written as SMILES. pIC50: −log10 of the molar value.

14 compounds from ChEMBL document CHEMBL3769322, “Synthesis and evaluation of anticancer and antiobesity activity of 1-ethoxy carbonyl-3,5-bis (3'-indolyl methylene)-4-pyperidone analogs” (Bioorg Med Chem Lett, 2016) can be followed below.

As to `CCOC(=O)N1C/C(=C\c2cn(Cc3ccccc3)c3ccccc23)C(=O)/C(=C/c2cn(Cc3ccccc3)c3ccccc23)C1`, the pIC50 in assay [1], in assay [2], in assay [3], in assay [4] and in assay [5] was less than 4.00 each time. In assay [6], the IC50 entry is “Not Active”.

On to `CCOC(=O)N1C/C(=C\c2cn(Cc3ccccc3F)c3ccccc23)C(=O)/C(=C/c2cn(Cc3ccccc3F)c3ccccc23)C1`, for which the pIC50 (usually the IC50 on a negative log10 scale, so that one unit is a factor of ten) is 4.54 in assay [1]; less than 4.00 in assay [2]; less than 4.00 in assay [3]; less than 4.00 in assay [4]; 4.07 in assay [5]; 4.25 in assay [6].

Turning to `CCOC(=O)N1C/C(=C\c2cn(Cc3ccccc3Cl)c3ccccc23)C(=O)/C(=C/c2cn(Cc3ccccc3Cl)c3ccccc23)C1`, the negative-log IC50 (pIC50) in assay [1] was 5.56; in assay [2] it was less than 4.00; in assay [3], less than 4.00; in assay [4], less than 4.00; in assay [5], 4.30. In addition, the IC50 entry in assay [6] is reported as “Not Active”.

For `CCOC(=O)N1C/C(=C\c2cn(Cc3ccc([N+](=O)[O-])cc3)c3ccccc23)C(=O)/C(=C/c2cn(Cc3ccc([N+](=O)[O-])cc3)c3ccccc23)C1`, the pIC50 in assay [1] was 4.80; in assay [2], less than 4.00; in assay [3] it was less than 4.00; in assay [4], less than 4.00; in assay [5] it was less than 4.00; in assay [6] it was 4.51.

Regarding `CCOC(=O)N1C/C(=C\c2cn(Cc3ccc(F)cc3)c3ccccc23)C(=O)/C(=C/c2cn(Cc3ccc(F)cc3)c3ccccc23)C1`, the negative logarithm of the IC50 (pIC50) was less than 4.00 in assay [1]; less than 4.00 in assay [2]; less than 4.00 in assay [3]; 4.32 in assay [4]; less than 4.00 in assay [5]. Moreover, the IC50 result in assay [6] was “Not Active”.

`CCOC(=O)N1C/C(=C\c2cn(Cc3ccccc3C#N)c3ccccc23)C(=O)/C(=C/c2cn(Cc3ccccc3C#N)c3ccccc23)C1`: the pIC50 in assay [1], in assay [2], in assay [3], in assay [4] and in assay [5] was less than 4.00 throughout. For the same compound, the IC50 entry in assay [6] is “Not Active”.

In the case of `CCOC(=O)N1C/C(=C\c2cn(Cc3ccc(Cl)cc3Cl)c3ccccc23)C(=O)/C(=C/c2cn(Cc3ccc(Cl)cc3Cl)c3ccccc23)C1`, the negative logarithm of the IC50 (pIC50) in assay [1] was less than 4.00; in assay [2], less than 4.00; in assay [3], less than 4.00; in assay [4], less than 4.00; in assay [5], less than 4.00; in assay [6], 4.83.

On to `CCOC(=O)N1C/C(=C\c2cn(Cc3ccc(Br)cc3)c3ccccc23)C(=O)/C(=C/c2cn(Cc3ccc(Br)cc3)c3ccccc23)C1`, for which the pIC50 in assay [1], in assay [2], in assay [3], in assay [4] and in assay [5] was less than 4.00 throughout. Moreover, in assay [6], the IC50 entry is recorded as “Not Active”.

Take `CCOC(=O)N1C/C(=C\c2cn(Cc3ccc(-c4ccccc4C#N)cc3)c3ccccc23)C(=O)/C(=C/c2cn(Cc3ccc(-c4ccccc4C#N)cc3)c3ccccc23)C1`: the pIC50 in assay [1], in assay [2], in assay [3], in assay [4] and in assay [5] was less than 4.00 each time. In assay [6], the IC50 result is given as “Not Active”.

On to `CCOC(=O)N1C/C(=C\c2cn(C)c3ccccc23)C(=O)/C(=C/c2cn(C)c3ccccc23)C1`, for which the pIC50 is 4.18 in assay [1]; less than 4.00 in assay [2]; less than 4.00 in assay [3]; less than 4.00 in assay [4]; 4.26 in assay [5]. In addition, the IC50 result in assay [6] was “Not Active”.

Turning to `CCOC(=O)N1C/C(=C\c2cn(Cc3cccc(Cl)c3)c3ccccc23)C(=O)/C(=C/c2cn(Cc3cccc(Cl)c3)c3ccccc23)C1`, the pIC50 is 5.38 in assay [1]; 5.13 in assay [2]; less than 4.00 in assay [3]; less than 4.00 in assay [4]; 4.75 in assay [5]. The IC50 entry in assay [6] was “Not Active”.

As to `COc1cc(/C=C/C(=O)CC(=O)/C=C/c2ccc(O)c(OC)c2)ccc1O` [CURCUMIN], the pIC50 in assay [1] is 4.63; in assay [2], 5.35; in assay [3], 4.33; in assay [4] it was 4.29; in assay [5] it was 4.30.

As to `COc1cccc2c1C(=O)c1c(O)c3c(c(O)c1C2=O)C[C@@](O)(C(=O)CO)C[C@@H]3O[C@H]1C[C@H](N)[C@H](O)[C@H](C)O1` [DOXORUBICIN], the negative logarithm of the IC50 (pIC50) in assay [1] was 6.85; in assay [2], 4.99; in assay [4], 5.04; in assay [5] it was 4.79.

On to `CCCCCCCCCCC[C@@H](C[C@@H]1OC(=O)[C@H]1CCCCCC)OC(=O)[C@H](CC(C)C)NC=O` [ORLISTAT], for which the negative-log IC50 (pIC50) in assay [6] was 4.21.
